According to patent US20140081025A1, “HETEROAROMATIC RING DERIVATIVE” (TAISHO PHARMACEUTICAL CO., LTD., priority 2011, published 2014):

Legend:
[1] = molecular target: T1, human orexin 1 receptor (hOX1R) (Homo sapiens, UniProt O43613); assay: Measurement of orexin antagonist activity (intracellular Ca2+ fluorescence, FDSS) in CHO cells expressing hOX1R; type: cell-based; settings: CHO cells forcibly expressing hOX1R; ligand (two-amino-acid-substituted human orexin-A) 300 pM; Fluo 4-AM; read-out: IC50 value OX1
T1 construct: expressed in transfected cells; host or cells: Chinese hamster ovary (CHO) cells
T1 sequence (O43613 1-425): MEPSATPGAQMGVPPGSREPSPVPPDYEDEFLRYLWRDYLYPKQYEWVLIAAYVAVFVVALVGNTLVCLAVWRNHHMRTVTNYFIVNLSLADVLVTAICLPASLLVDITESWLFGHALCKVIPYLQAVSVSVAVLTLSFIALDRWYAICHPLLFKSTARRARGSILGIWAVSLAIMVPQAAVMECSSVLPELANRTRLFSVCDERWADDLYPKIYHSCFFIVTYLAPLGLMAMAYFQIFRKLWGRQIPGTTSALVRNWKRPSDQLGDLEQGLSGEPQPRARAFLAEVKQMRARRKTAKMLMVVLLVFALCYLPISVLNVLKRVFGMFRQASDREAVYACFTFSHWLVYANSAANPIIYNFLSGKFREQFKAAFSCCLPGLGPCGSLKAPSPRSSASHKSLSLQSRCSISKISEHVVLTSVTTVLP
Experimental: (§1) The antagonist activity of a test compound against the human orexin 1 receptor (hOX1R) or orexin 2 receptor (hOX2R) was measured by the method described in the document (Toshikatsu Okumura et al., Biochemical and Biophysical Research Communications, 280, 976-981, 2001) with appropriate modification. Chinese hamster ovary (CHO) cells forcibly expressing hOX1R or hOX2R were seeded into each well of a 96-well Black clear bottom plate (Nunc A/S) in the amount of 20000 cells per well and were cultured in a Ham's F-12 medium (Invitrogen, Inc.) containing 0.1 mM MEM non-essential amino acids (Invitrogen, Inc.), 0.5 mg/mL G418 (Invitrogen, Inc.), and 10% fetal calf serum (Invitrogen, Inc.) at 37° C. in 5% CO2 for 16 hours. The medium was removed, and then added to each well was 100 μL of an assay buffer (pH 7.4) containing 0.5 μM Fluo 4-AM ester (Dojindo Laboratories), wherein the buffer was composed of 25 mM HEPES (Dojindo Laboratories), a Hanks' balanced salt solution (Invitrogen, Inc.), 0.1% bovine serum albumin (Sigma-Aldrich Co., LLC.), 2.5 mM probenecid (Sigma-Aldrich Co., LLC.), and 200 μg/mL Amaranth (Sigma-Aldrich Co., LLC.), followed by incubation at 37° C. in 5% CO2 for 60 min. The assay buffer containing Fluo 4-AM ester was removed, and then 150 μL of an assay buffer solution containing 10 mM of the test compound dissolved in dimethyl sulfoxide was added to each well, followed by incubation for 30 min.
(§2) A peptide (Pyr-[…]NH2: Peptide Institute, Inc.), which is a ligand having substitution of two amino acids in human orexin-A, was diluted with an assay buffer to a final concentration of 300 pM for hOX1R and to a final concentration of 3 nM for hOX2R. The reaction was started by adding 50 μL of this ligand solution to each well. The reaction was monitored by measuring the fluorescence of each well at each 1 second for 3 min with a Functional Drug Screening System (FDSS manufactured by Hamamatsu Photonics K.K.), and the antagonist activity was determined based on the maximum fluorescence value as an index of the intracellular Ca^2+ concentration. The antagonist activity of a test compound was calculated by assuming that the fluorescence value of the well containing only a dilution buffer was 100% and that the fluorescence value of the well containing a buffer not containing the ligand or any test compound was 0%. The 50% inhibitory concentration (IC50 value) of a test compound was determined from fluorescence values at various concentrations of the test compound.

[2] = molecular target: T2, human orexin 2 receptor (hOX2R) (Homo sapiens, UniProt O43614); assay: Measurement of orexin antagonist activity (intracellular Ca2+ fluorescence, FDSS) in CHO cells expressing hOX2R; type: cell-based; settings: CHO cells forcibly expressing hOX2R; ligand (two-amino-acid-substituted human orexin-A) 3 nM; Fluo 4-AM; read-out: IC50 value OX2
T2 construct: expressed in transfected cells; host or cells: Chinese hamster ovary (CHO) cells
T2 sequence (O43614 1-444): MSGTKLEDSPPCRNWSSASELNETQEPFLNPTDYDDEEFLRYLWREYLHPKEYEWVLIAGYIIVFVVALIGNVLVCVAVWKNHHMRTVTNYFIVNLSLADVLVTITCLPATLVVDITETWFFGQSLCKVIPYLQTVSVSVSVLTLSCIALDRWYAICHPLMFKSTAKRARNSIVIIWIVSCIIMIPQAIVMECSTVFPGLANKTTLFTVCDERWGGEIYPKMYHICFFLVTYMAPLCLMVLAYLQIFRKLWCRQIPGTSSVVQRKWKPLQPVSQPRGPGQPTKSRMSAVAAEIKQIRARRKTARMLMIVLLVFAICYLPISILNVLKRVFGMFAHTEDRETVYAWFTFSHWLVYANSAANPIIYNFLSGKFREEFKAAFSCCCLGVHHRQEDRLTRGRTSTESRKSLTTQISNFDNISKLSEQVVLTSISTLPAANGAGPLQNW
Experimental: as §1, §2

IC50 [1] [nM] | IC50 [2] [nM] | SMILES
791 | 613 | CCN(CCc1noc(-c2ccc(F)cn2)n1)C(=O)c1ccccc1-n1nccn1 [Example 44, N-ethyl-N-{2-[5-(5-fluoropyridin-2-yl)-1,2,4-oxadiazol-3-yl]ethyl}-2-(2H-1,2,3-triazol-2-yl) benzamide]
2.2 | 10.6 | CCN(CCc1ccn(-c2ccc(F)cc2)n1)C(=O)c1ccccc1-n1nccn1 [Example 22, N-Ethyl-N-{2-[1-(4-fluorophenyl)-1H-pyrazol-3-yl]ethyl}-2-(2H-1,2,3-triazol-2-yl)benzamide]
10 | 132 | CN(CCc1ccn(-c2ccc(F)cn2)n1)C(=O)c1ccccc1-n1nccn1 [Example 14, N-{2-[1-(5-Fluoropyridin-2-yl)-1H-pyrazol-3-yl]ethyl}-N-methyl-2-(2H-1,2,3-triazol-2-yl)benzamide]
3.3 | 30.5 | CN(CCc1ccn(-c2ccc(F)cn2)n1)C(=O)c1cc(Cl)ccc1-n1nccn1 [Example 16, 5-Chloro-N-{2-[1-(5-fluoropyridin-2-yl)-1H-pyrazol-3-yl]ethyl}-N-methyl-2-(2H-1,2,3-triazol-2-yl)benzamide]
14.6 | 191 | CN(CCc1ccn(-c2ccc(F)cn2)n1)C(=O)c1cc(F)ccc1-n1nccn1 [Example 15, 5-Fluoro-N-{2-[1-(5-fluoropyridin-2-yl)-1H-pyrazol-3-yl]ethyl}-N-methyl-2-(2H-1,2,3-triazol-2-yl)benzamide]
8.9 | 3.4 | CCN(CCc1cn(-c2ccc(F)cn2)cn1)C(=O)c1cc(C)ccc1-n1nccn1 [Example 13, N-Ethyl-N-{2-[1-(5-fluoropyridin-2-yl)-1H-imidazol-4-yl]ethyl}-5-methyl-2-(2H-1,2,3-triazol-2-yl)benzamide]
1.7 | 78 | CCN(CCc1noc(-c2ccc(F)cc2)n1)C(=O)c1cc(F)ccc1-c1ncccn1 [Example 40, N-ethyl-5-fluoro-N-{2-[5-(4-fluorophenyl)-1,2,4-oxadiazol-3-yl]ethyl}-2-(pyrimidin-2-yl) benzamide]
16.7 | 77.4 | Cc1ccc(-n2nccn2)c(C(=O)N(C)CCc2cc(-c3ccc(F)cn3)on2)c1 [Example 9, N-{2-[5-(5-Fluoropyridin-2-yl)-1,2-oxazol-3-yl]ethyl}-N,5-dimethyl-2-(2H-1,2,3-triazol-2-yl)benzamide]
0.4 | 2.8 | CCN(CCc1ccn(-c2ccc(F)cn2)n1)C(=O)c1ccc(F)cc1-n1nccn1 [Example 17, N-Ethyl-4-fluoro-N-{2-[1-(5-fluoropyridin-2-yl)-1H-pyrazol-3-yl]ethyl}-2-(2H-1,2,3-triazol-2-yl)benzamide]
4.2 | 60.6 | CCN(CCc1cnn(-c2ccc(F)cn2)c1)C(=O)c1ccccc1-n1nccn1 [Example 3, N-Ethyl-N-{2-[1-(5-fluoropyridin-2-yl)-1H-pyrazol-4-yl]ethyl}-2-(2H-1,2,3-triazol-2-yl)benzamide]
1.9 | 11.6 | CCN(CCc1noc(-c2ccc(F)cn2)n1)C(=O)c1cc(C)ccc1-n1nccn1 [Example 12, N-Ethyl-N-{2-[5-(5-fluoropyridin-2-yl)-1,2,4-oxadiazol-3-yl]ethyl}-5-methyl-2-(2H-1,2,3-triazol-2-yl)benzamide]
1.8 | 5.2 | CCN(CCc1cnn(-c2ccc(F)cn2)c1)C(=O)c1cc(C)ccc1-n1nccn1 [Example 1, N-Ethyl-N-{2-[1-(5-fluoropyridin-2-yl)-1H-pyrazol-4-yl]ethyl}-5-methyl-2-(2H-1,2,3-triazol-2-yl)benzamide]
1.6 | 31.6 | CCN(CCc1noc(-c2ccc(F)cc2)n1)C(=O)c1ccccc1-n1nccn1 [Example 41, N-ethyl-N-{2-[5-(4-fluorophenyl)-1,2,4-oxadiazol-3-yl]ethyl}-2-(2H-1,2,3-triazol-2-yl) benzamide]
8.1 | 81.1 | CCN(CCc1ccn(-c2cccc(C)n2)n1)C(=O)c1cc(F)ccc1-c1ncccn1 [Example 28, N-ethyl-5-fluoro-N-{2-[1-(6-methylpyridin-2-yl)-1H-pyrazol-3-yl]ethyl}-2-(pyrimidin-2-yl) benzamide]
1.9 | 5.9 | Cc1ccc(-n2nccn2)c(C(=O)N(C)CCc2noc(-c3ccc(F)c(F)c3)n2)c1 [Example 36]
1.3 | 11.2 | CCN(CCc1ccn(-c2ccc(F)c(F)c2)n1)C(=O)c1cc(F)ccc1-c1ncccn1 [Example 29, N-{2-[1-(3,4-difluorophenyl)-1H-pyrazol-3-yl]ethyl}-N-ethyl-5-fluoro-2-(pyrimidin-2-yl) benzamide]
14.8 | 133 | CN(CCc1noc(-c2ccc(F)c(F)c2)n1)C(=O)c1ccccc1-n1nccn1 [Example 32, N-{2-[5-(3,4-difluorophenyl)-1,2,4-oxadiazol-3-yl]ethyl}-N-methyl-2-(2H-1,2,3-triazol-2-yl) benzamide]
9.7 | 10.8 | CCN(CCc1noc(-c2ccc(F)c(F)c2)n1)C(=O)c1ccccc1-n1nccn1 [Example 42, N-ethyl-N-{2-[5-(3,4-difluorophenyl)-1,2,4-oxadiazol-3-yl]ethyl}-2-(2H-1,2,3-triazol-2-yl) benzamide]
11 | 24.9 | CCN(CCc1ccn(-c2ccc(F)cn2)n1)C(=O)c1cc(F)ccc1-n1nccn1 [Example 7, N-Ethyl-N-{2-[1-(5-fluoropyridin-2-yl)-1H-pyrazol-3-yl]ethyl}-5-fluoro-2-(2H-1,2,3-triazol-2-yl)benzamide]
1.2 | 6.1 | CCN(CCc1noc(-c2ccc(F)cc2)n1)C(=O)c1cc(C)ccc1-n1nccn1 [Example 38, N-Ethyl-N-{2-[5-(4-fluorophenyl)-1,2,4-oxadiazol-3-yl]ethyl}-5-methyl-2-(2H-1,2,3-triazol-2-yl)benzamide]
974 | 1230 | CCN(CCc1noc(-c2ccc(F)cn2)n1)C(=O)c1cc(F)ccc1-c1ncccn1 [Example 46, N-ethyl-5-fluoro-N-{2-[5-(5-fluoropyridin-2-yl)-1,2,4-oxadiazol-3-yl]ethyl}-2-(pyrimidin-2-yl) benzamide]
11.6 | 114 | CN(CCc1noc(-c2ccc(F)cc2)n1)C(=O)c1ccccc1-n1nccn1 [Example 31, N-{2-[5-(4-Fluorophenyl)1,2,4-oxadiazol-3-yl]ethyl}-N-methyl-2-(2H-1,2,3-triazol-2-yl)benzamide]
0.7 | 17.3 | CCN(CCc1noc(-c2ccc(F)cc2)n1)C(=O)c1cc(C)ccc1-c1ncccn1 [Example 39, N-ethyl-N-{2-[5-(4-fluorophenyl)-1,2,4-oxadiazol-3-yl]ethyl}-5-methyl-2-(pyrimidin-2-yl)benzamide]
